Test results reported in patent publication US20250195475A1, “CDK2 INHIBITOR AND PREPARATION METHOD AND USE THEREOF” (INVENTISBIO CO., LTD., priority 2022, published 2025).
pIC50: −log10 of the molar value.

Target: CDK2/CyclinE1 (Homo sapiens (Human), UniProt P24941)
Assay: CDK2 kinase assay (TR-FRET)
Assay type: biochemical
Conditions: CDK2/CyclinE1 0.5 nM, ATP 50 μM
Description: The purpose of these assays is to evaluate the inhibition of small molecule inhibitors by using TR-FRET assay.
Compound Preparation. Dissslove the compounds into DMSO solution to make 10 mM DMSO stock. Serially dilute the stock solution from highest concentration down to lowest in DMSO to make the compound stock plate (100× stock plates). To make 5× compound intermediate plate, add 38 μL of assay buffer (50 mM HEPES, pH 7.5, 0.05 mg/mL BSA, 10 mM MgCl2, 1 mM EGTA, 0.01% Tween-20, 2 mM DTT) into each well of the V-bottom plate; then transfer 2 μL of the stock compound solution of each concentration from the compound stock plate (100× stock), and mix well.
Enzyme reaction. Transfer 2 μL compound from 5× intermediate plate into assay plate, then add 4 μL/well 2.5× Enzyme mix to assay plate, incubation for 10 min at room temperature. For positive control wells, add 4 μL/well assay buffer instead of Enzyme mix. Then add 4 μL/well 2.5× Substrate mix to assay plate, and incubation at 25° C. for 30 min at room temperature. After reaction, 10 μL 2× Detection mix (final 15 mM EDTA, 1× LANCE Detection Buffer, 0.5 nM Detection antibody) was added and incubated for 1 h prior to detection with excitation and emission at 320 and 665 nm (Tecan Spark® TR-FRET mode Tecan).
Inhibition rate (IR) of the tested compounds was determined by the following formula: IR (%)=(average High control−compound well)/(average High control−average Low control)*100%. Fit the compound IC50 from non-linear regression equation: Y=Bottom+(Top−Bottom)/(1+10^((Log IC50−X)*HillSlope)). X: Log of cpd concentration; Y: Inhibition rate (TR); Top and Bottom: Plateaus in same units as Y, log IC50: same log units as X; HillSlope: Slope factor or Hill slope.

| SMILES | pIC50 |
| --- | --- |
| CC(C)NC(=O)O[C@@H]1CC[C@H](c2cc(NC(=O)[C@H]3CCN(C(=O)C(C)C)C3)n[nH]2)C1 [Compound 31] | 8.09 |
| CC(C)NC(=O)O[C@@H]1CC[C@H](c2cc(NC(=O)[C@H]3CCN(C(=O)c4cnn(C)c4)C3)n[nH]2)C1 [Compound 32] | 8.54 |
| COC[C@H]1C[C@@H]1C(=O)Nc1cc([C@H]2CC[C@@H](OC(=O)NC34CC(C3)C4)C2)[nH]n1 [Compound 34] | 9.15 |
| COC[C@H]1C[C@@H]1C(=O)Nc1cc([C@H]2CC[C@@H](OC(=O)NC3(C)CC3)C2)[nH]n1 [Compound 35] | 9.10 |
| CC(C)NC(=O)O[C@@H]1CC[C@H](c2cc(NC(=O)C3CCCC3)n[nH]2)C1 [Compound 37] | 8.54 |
| COC[C@H]1C[C@@H]1C(=O)Nc1cc([C@H]2CC[C@@H](OC(N)=O)C2)[nH]n1 [Compound 40] | 7.32 |
| Cn1nccc1C(=O)Nc1cc([C@H]2CC[C@@H](OC(=O)NC34CCC(CC3)OC4)C2)[nH]n1 [Compound 42] | 8.36 |
| CC(C)NC(=O)O[C@@H]1CC[C@H](c2cc(NC(=O)[C@H]3C[C@@H]3COC(C)C)n[nH]2)C1 [Compound 45] | 8.57 |
| CC(C)NC(=O)O[C@@H]1CC[C@H](c2cc(NC(=O)C34CC(C3)C4)n[nH]2)C1 [Compound 46] | 8.82 |
| CC1(NC(=O)OC2COC(c3cc(NC(=O)Cc4cc(F)cc(F)c4)n[nH]3)C2)CCOC1 (stereo not shown) [Compound 50] | 9.05 |
| CC1(NC(=O)OC2COC(c3cc(NC(=O)Cc4cc(F)cc(F)c4)n[nH]3)C2)CCOC1 (stereo not shown) [Compound 51] | 8.77 |
| CC(C)NC(=O)O[C@@H]1CC[C@H](c2cc(NC(=O)[C@H]3C[C@@H]3CC#N)n[nH]2)C1 [Compound 56] | 8.40 |
| COC[C@H]1C[C@@H]1C(=O)Nc1cc([C@H]2CC[C@@H](OC(=O)N[C@@H](C)C3CC3)C2)[nH]n1 [Compound 57] | 8.24 |
| CC(C)NC(=O)O[C@@H]1CC[C@H](c2cc(NC(=O)[C@@H]3CCN(S(=O)(=O)C(C)C)C3)n[nH]2)C1 [Compound 58] | 8.39 |
| CC[C@H](C)NC(=O)O[C@@H]1CC[C@H](c2cc(NC(=O)[C@@H]3CCN(S(C)(=O)=O)C3)n[nH]2)C1 [Compound 59] | 8.31 |
| CC(C)NC(=O)OC1COC(c2cc(NC(=O)Cc3ccc(C(F)(F)F)cc3)n[nH]2)C1 (stereo not shown) [Compound 62] | 8.64 |
| CC(C)NC(=O)OC1COC(c2cc(NC(=O)Cc3ccc(C(F)(F)F)cc3)n[nH]2)C1 (stereo not shown) [Compound 63] | 8.01 |
| CC(C)NC(=O)OC1COC(c2cc(NC(=O)Cc3ccccc3C(F)(F)F)n[nH]2)C1 (stereo not shown) [Compound 64] | 7.78 |
| CC(C)NC(=O)OC1COC(c2cc(NC(=O)Cc3ccccc3C(F)(F)F)n[nH]2)C1 (stereo not shown) [Compound 65] | 7.01 |
| CC(C)NC(=O)OC1COC(c2cc(NC(=O)c3ccccc3)n[nH]2)C1 (stereo not shown) [Compound 66] | 7.84 |
| CC(C)NC(=O)OC1COC(c2cc(NC(=O)c3ccccc3)n[nH]2)C1 (stereo not shown) [Compound 67] | 7.21 |
| CO[C@H]1C[C@H](C(=O)Nc2cc([C@H]3CC[C@@H](OC(=O)NC(C)C)C3)[nH]n2)C1 [Compound 68] | 8.10 |
| COCc1cc(C(=O)Nc2cc([C@H]3C[C@@H]4[C@H](C3)[C@H]4C(=O)NC(C)C)[nH]n2)n(C)n1 [Compound 69] | 7.73 |
| CC(C)NC(=O)O[C@@H]1CC[C@H](c2cc(NC(=O)[C@@H]3CCN(S(=O)(=O)C4CC4)C3)n[nH]2)C1 [Compound 70] | 8.92 |

Results, then the compound that gave them:

| pIC50 | SMILES |
| --- | --- |
| 8.06 | CC(C)NC(=O)O[C@@H]1CC[C@H](c2cc(NC(=O)[C@@H]3CCCN(S(C)(=O)=O)C3)n[nH]2)C1 [Compound 71] |
| 6.68 | COC1CN(CC(=O)Nc2cc([C@H]3CC[C@@H](OC(=O)NC(C)C)C3)[nH]n2)C1 [Compound 72] |
| 8.39 | COC[C@H]1C[C@@H]1C(=O)Nc1cc([C@H]2CC[C@@H](OC(=O)N[C@H](C)C3CC3)C2)[nH]n1 [Compound 73] |
| 8.66 | CC(C)NC(=O)O[C@@H]1CC[C@H](c2cc(NC(=O)C3CN(S(C)(=O)=O)CC3C)n[nH]2)C1 (stereo partly shown) [Compound 74] |
| 7.94 | CC(C)NC(=O)O[C@@H]1CC[C@H](c2cc(NC(=O)C3CN(S(C)(=O)=O)CC3C)n[nH]2)C1 (stereo partly shown) [Compound 75] |
| 7.64 | CC(C)NC(=O)O[C@@H]1CC[C@H](c2cc(NC(=O)[C@H]3CCCN(S(C)(=O)=O)C3)n[nH]2)C1 [Compound 76] |
| 7.25 | CC(C)NC(=O)O[C@@H]1CO[C@H](c2cc(NC(=O)c3cc(C4CC4)nn3C)n[nH]2)C1 [Compound 77] |
| 7.73 | CCc1cc(C(=O)Nc2cc([C@@H]3C[C@H](OC(=O)NC(C)C)CO3)[nH]n2)n(C)n1 [Compound 78] |
| 8.12 | CCc1cc(C(=O)Nc2cc([C@H]3C[C@@H](OC(=O)NC(C)C)CO3)[nH]n2)n(C)n1 [Compound 79] |
| 7.81 | CC(C)NC(=O)O[C@H]1CO[C@@H](c2cc(NC(=O)c3cc(C4CC4)nn3C)n[nH]2)C1 [Compound 80] |
| 9.05 | CS(=O)(=O)N1CC[C@@H](C(=O)Nc2cc([C@H]3CC[C@@H](OC(=O)NC45CC(C4)C5)C3)[nH]n2)C1 [Compound 81] |
| 6.94 | CC(C)NC(=O)O[C@@H]1CC[C@H](c2cc(NC(=O)CN3CC(F)C3)n[nH]2)C1 [Compound 82] |
| 8.96 | CC1(NC(=O)O[C@@H]2CC[C@H](c3cc(NC(=O)[C@@H]4CCN(S(C)(=O)=O)C4)n[nH]3)C2)CC1 [Compound 83] |
| 8.70 | COCC1C[C@@H]1C(=O)Nc1cc([C@H]2CC[C@@H](OC(=O)NC(C)(C)C)C2)[nH]n1 (stereo partly shown) [Compound 85] |
| 8.44 | CC(C)NC(=O)O[C@@H]1CC[C@H](c2cc(NC(=O)C3CC3C#N)n[nH]2)C1 (stereo partly shown) [Compound 87] |
| 8.24 | Cc1cc(C(=O)Nc2cc([C@H]3C[C@@H](OC(=O)NC(C)C)CO3)[nH]n2)n(C)n1 [Compound 90] |
| 7.72 | Cc1cc(C(=O)Nc2cc([C@@H]3C[C@H](OC(=O)NC(C)C)CO3)[nH]n2)n(C)n1 [Compound 91] |
| 8.70 | CC(C)NC(=O)O[C@H]1CO[C@@H](c2cc(NC(=O)c3ccnn3CC(F)F)n[nH]2)C1 [Compound 92] |
| 8.28 | CC(C)NC(=O)O[C@@H]1CO[C@H](c2cc(NC(=O)c3ccnn3CC(F)F)n[nH]2)C1 [Compound 93] |
| 8.89 | Cn1nccc1C(=O)Nc1cc([C@H]2C[C@@H](OC(=O)NC3(C)CC3)CO2)[nH]n1 [Compound 94] |
| 8.43 | Cn1nccc1C(=O)Nc1cc([C@@H]2C[C@H](OC(=O)NC3(C)CC3)CO2)[nH]n1 [Compound 95] |
| 9.10 | Cn1nccc1C(=O)Nc1cc([C@H]2C[C@@H](OC(=O)NC34CC(C3)C4)CO2)[nH]n1 [Compound 96] |
| 7.73 | COCc1cc(C(=O)Nc2cc([C@H]3C[C@@H]4[C@H](C3)[C@H]4C(=O)NC(C)(C)C)[nH]n2)n(C)n1 [Compound 98] |
| 9.10 | CC[C@H](C)NC(=O)O[C@H]1CO[C@@H](c2cc(NC(=O)c3ccnn3C)n[nH]2)C1 [Compound 99] |
| 8.82 | Cn1nccc1C(=O)Nc1cc([C@H]2C[C@@H](OC(=O)NC(C)(C)C)CO2)[nH]n1 [Compound 101] |
| 7.97 | CC(C)NC(=O)O[C@@H]1CO[C@H](c2cc(NC(=O)Cc3ccc4ncn(C)c4c3)n[nH]2)C1 [Compound 103] |
| 7.76 | COCc1cc(F)cc(CC(=O)Nc2cc([C@@H]3C[C@H](OC(=O)NC(C)C)CO3)[nH]n2)c1 [Compound 104] |
| 8.96 | CC(C)NC(=O)O[C@@H]1CC[C@H](c2cc(NC(=O)[C@H]3C[C@@H]3COC(F)F)n[nH]2)C1 [Compound 105] |
